Measured values published in patent US8481489B2, “GH secretagogues and uses thereof” (Theratechnologies Inc., priority 2003, dated 2013).

Assay: In vitro half-life
Format: in vitro ADME
Source text: The safety profile of TH9507 is generally good.

A half-life of 33.6 min was found for CC[C@H](C)[C@H](NC(=O)[C@H](C)NC(=O)[C@H](CC(=O)O)NC(=O)[C@H](C)NC(=O)[C@@H](N)Cc1ccc(O)cc1)C(=O)N[C@@H](Cc1ccccc1)C(=O)N[C@H](C(=O)N[C@@H](CC(N)=O)C(=O)N[C@@H](CO)C(=O)N[C@@H](Cc1ccc(O)cc1)C(=O)N[C@@H](CCCNC(=N)N)C(=O)N[C@@H](CCCCN)C(=O)N[C@H](C(=O)N[C@@H](CC(C)C)C(=O)NCC(=O)N[C@@H](CCC(N)=O)C(=O)N[C@@H](CC(C)C)C(=O)N[C@@H](CO)C(=O)N[C@@H](C)C(=O)N[C@@H](CCCNC(=N)N)C(=O)N[C@@H](CCCCN)C(=O)N[C@@H](CC(C)C)C(=O)N[C@@H](CC(C)C)C(=O)N[C@@H](CCC(N)=O)C(=O)N[C@@H](CC(=O)O)C(=O)N[C@H](C(=O)N[C@@H](CCSC)C(=O)N[C@@H](CO)C(=O)N[C@@H](CCCNC(=N)N)C(=O)N[C@@H](CCC(N)=O)C(=O)N[C@@H](CCC(N)=O)C(=O)NCC(=O)N[C@@H](CCC(=O)O)C(=O)N[C@@H](CO)C(=O)N[C@@H](CC(N)=O)C(=O)N[C@@H](CCC(N)=O)C(=O)N[C@@H](CCC(=O)O)C(=O)N[C@@H](CCCNC(=N)N)C(=O)NCC(=O)N[C@@H](C)C(=O)N[C@@H](CCCNC(=N)N)C(=O)N[C@@H](C)C(=O)N[C@@H](CCCNC(=N)N)C(=O)N[C@@H](CC(C)C)C(N)=O)[C@@H](C)CC)C(C)C)[C@@H](C)O [hGRF, hGRF(1-44)NH2, reference compound] in this work.
